From PubChem BioAssay (NCI)
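Five concentrations, 48 hours, 96-well plates. TGI: total growth inhibition.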

Legend:
Assay in all cases: DTP human tumour cell line panel, 48 h
[1] = test system: SN12C renal
[2] = test system: SW-620 colon
[3] = test system: M19-MEL melanoma
[4] = test system: SNB-75 CNS
[5] = test system: HCT-116 colon
[6] = test system: SF-268 CNS
[7] = test system: SK-MEL-2 melanoma
[8] = test system: MALME-3M melanoma
[9] = test system: NCI-H460 lung
[10] = test system: BT-549 breast
[11] = test system: MDA-N
[12] = test system: NCI/ADR-RES ovarian

CC12CCC(=O)N1c1ccc([N+](=O)[O-])cc1N2 (stereo not drawn)
TGI [1]: > 100 µM | TGI [2]: > 100 µM | TGI [3]: > 100 µM | TGI [4]: > 100 µM | TGI [5]: > 100 µM | TGI [6]: > 100 µM | TGI [7]: > 100 µM | TGI [8]: > 100 µM

CCCCC1(C)C=C/C(=C2/C(=O)O/C(=C\C(=O)O)C2=O)O1 (stereo not drawn)
TGI [1]: > 100 µM | TGI [9]: > 100 µM | TGI [2]: > 100 µM | TGI [3]: > 100 µM | TGI [4]: > 100 µM | TGI [5]: > 100 µM | TGI [7]: > 100 µM | TGI [8]: > 100 µM

Nc1c([N+](=O)[O-])nc(Cl)c2nncn12
TGI [1]: > 100 µM | TGI [9]: > 100 µM | TGI [2]: > 100 µM | TGI [3]: > 100 µM | TGI [4]: > 77.7 µM | TGI [5]: > 63.9 µM | TGI [6]: > 100 µM | TGI [7]: > 100 µM | TGI [8]: > 100 µM

CC1(c2ccccc2Cl)C(C#N)C(=O)NC(=O)C1C#N (stereo not drawn)
TGI [1]: > 100 µM | TGI [9]: > 100 µM | TGI [2]: > 100 µM | TGI [3]: > 100 µM | TGI [4]: 75.4 µM | TGI [6]: > 100 µM | TGI [7]: > 100 µM | TGI [8]: > 100 µM

[O-]c1c2cc(-[n+]3c(-c4ccccc4)cc(-c4ccccc4)cc3-c3ccccc3)cc1COCCOCCOCCOCCOC2
TGI [1]: > 100 µM | TGI [2]: > 100 µM | TGI [3]: 87.3 µM | TGI [4]: > 100 µM | TGI [5]: > 100 µM | TGI [6]: 93.5 µM | TGI [7]: 44 µM | TGI [8]: 98.3 µM

O=C(c1nc2ccccc2[nH]c1=O)C(O)c1ccccc1 (stereo not drawn)
TGI [1]: > 100 µM | TGI [9]: > 100 µM | TGI [2]: > 100 µM | TGI [3]: > 100 µM | TGI [5]: > 100 µM | TGI [6]: > 100 µM | TGI [7]: > 100 µM | TGI [8]: > 100 µM

CC(=O)OCCOCNC(=S)N/N=C/c1cc(Br)cs1
TGI [1]: > 100 µM | TGI [9]: > 100 µM | TGI [2]: > 100 µM | TGI [3]: > 100 µM | TGI [4]: > 100 µM | TGI [5]: > 100 µM | TGI [6]: > 100 µM | TGI [7]: > 100 µM | TGI [8]: > 100 µM

CC1(C)CC(=O)C(/C(=N/NC(=S)NN)C(=O)Nc2nc3ccc([N+](=O)[O-])cc3s2)C(=O)C1
TGI [1]: > 100 µM | TGI [9]: > 100 µM | TGI [2]: > 100 µM | TGI [3]: > 100 µM | TGI [4]: > 100 µM | TGI [5]: > 100 µM | TGI [6]: > 100 µM | TGI [7]: > 100 µM | TGI [8]: > 100 µM

COc1ccc(CCC2c3cc(OC)c(OC)cc3CCN2C)cc1OC (stereo not drawn)
TGI [1]: > 100 µM | TGI [9]: > 100 µM | TGI [2]: > 100 µM | TGI [3]: > 100 µM | TGI [4]: > 100 µM | TGI [5]: > 100 µM | TGI [6]: > 100 µM | TGI [7]: > 100 µM | TGI [8]: > 100 µM

O=C(CCC1C(=O)NC(=S)NC1=O)c1ccc2ccccc2c1
TGI [1]: > 100 µM | TGI [9]: > 100 µM | TGI [2]: > 100 µM | TGI [3]: > 100 µM | TGI [4]: > 100 µM | TGI [5]: > 100 µM | TGI [6]: > 100 µM | TGI [7]: > 100 µM | TGI [8]: > 100 µM

C/C=C/C#CC#C/C=C/C=C/C(O)CCO (stereo not drawn)
TGI [1]: > 23.1 µM | TGI [9]: > 23.1 µM | TGI [2]: > 23.1 µM | TGI [3]: > 23.1 µM | TGI [4]: > 23.1 µM | TGI [5]: > 23.1 µM | TGI [6]: > 23.1 µM | TGI [7]: > 23.1 µM | TGI [8]: > 23.1 µM

C=C1CCC2[C@@H](CCC3[C@]2(C)CCC[C@]3(C)C(=O)OC)C1CC=O (stereo partly drawn)
TGI [1]: 36.7 µM | TGI [9]: 31.7 µM | TGI [2]: 35 µM | TGI [3]: 33.8 µM | TGI [5]: 29.4 µM | TGI [6]: 35.1 µM | TGI [7]: 38.2 µM | TGI [8]: 37.5 µM

C/C(=C\CBr)CCC(Br)C(C)(C)Cl (stereo not drawn)
TGI [1]: > 100 µM | TGI [9]: > 100 µM | TGI [2]: > 100 µM | TGI [3]: > 100 µM | TGI [4]: > 100 µM | TGI [5]: > 100 µM | TGI [6]: > 100 µM | TGI [7]: > 100 µM | TGI [8]: > 100 µM

CN(C)C(=NCc1ccccc1)NC#N
TGI [1]: > 100 µM | TGI [9]: > 100 µM | TGI [2]: > 100 µM | TGI [3]: > 100 µM | TGI [5]: > 100 µM | TGI [6]: > 100 µM | TGI [7]: > 100 µM

CCOC(=O)/C(C#N)=C(O)/C(=C\c1ccc(Br)cc1)NC(=O)c1ccccc1
TGI [1]: > 100 µM | TGI [9]: > 100 µM | TGI [2]: 51.7 µM | TGI [3]: > 100 µM | TGI [4]: > 100 µM | TGI [5]: 34.5 µM | TGI [6]: > 100 µM | TGI [8]: > 100 µM

CCOP1(=O)C=C(C)C(Cl)=C(C)C1 (stereo not drawn)
TGI [1]: 51.5 µM | TGI [9]: > 100 µM | TGI [2]: 53.5 µM | TGI [3]: > 100 µM | TGI [4]: 69.7 µM | TGI [5]: 41.4 µM | TGI [6]: > 100 µM | TGI [7]: 50.4 µM

c1cc2nnc1SCCCSc1ccc(nn1)SCCCS2
TGI [1]: > 95.6 µM | TGI [10]: > 100 µM | TGI [9]: > 100 µM | TGI [2]: > 100 µM | TGI [4]: > 56.6 µM | TGI [11]: > 100 µM | TGI [5]: > 54.1 µM | TGI [12]: > 52.9 µM | TGI [6]: > 100 µM | TGI [7]: > 86.8 µM | TGI [8]: > 100 µM

COC(=O)[C@@]1(C(C)CC(=O)O)CCCCC1=O (stereo partly drawn)
TGI [1]: > 100 µM | TGI [9]: > 100 µM | TGI [3]: > 100 µM | TGI [4]: > 100 µM | TGI [5]: > 100 µM | TGI [6]: > 100 µM | TGI [7]: > 100 µM | TGI [8]: > 100 µM
